# Assay results as given in PMC4594923, “Food Polyphenols Fail to Cause a Biologically Relevant Reduction of COX-2 Activity” (PLoS ONE, 2015).
# Marks after values point to notes of the source that are not given here.
# Key:
# [1] = test system: arachidonic acid (AA) cascade; assay: kidney tissue oxylipin/PG levels in LPS induced sepsis in mice; settings: kidney tissue 24 h after LPS treatment, LPS +, mean;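 also: male C57BL/6N mice challenged with LPS, kidney taken 24 h later, oxylipins quantified by LC-MS after solid-phase extraction of tissue homogenate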
# Excerpt: (§1) Twelve week old male C57BL/6N mice (Charles River, Sulzfeld, Germany) were used for all experiments. C57BL/6 male mice (H2^b, 11–13 weeks of age) were obtained from Charles River (Sulzfeld, Germany). Animals were cared for in accordance with the institution’s guidelines for experimental animals and with the guidelines of the American Physiological Society. […] Mice were monitored closely and if they appeared compromised (i.e. inactivity, no intake of food or water) after compound or LPS injection the experiment was terminated.
# (§2) Oxylipin levels were analyzed in plasma and tissues by LC-MS following SPE extraction of 200 μl plasma or tissue homogenate (50 mg) on Chromabond C18 ec cartridges (Machery-Nagel, Düren, Germany) [19].
# (§3) GraphPad Prism 5.0 (GraphPad Software, San Diego, USA) was used for data analysis, the fitting of dose response curves and calculation of the IC50 values. Statistical differences were determined by Dunnetts test (LPS vs. other groups).
# [2] = test system: arachidonic acid (AA) cascade; assay: plasma oxylipin/PG levels in LPS induced sepsis in mice; type: in vivo, C57BL/6N mice; settings: plasma 24 h after LPS treatment; LPS +; mean;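 also: male C57BL/6N mice given LPS, plasma oxylipins quantified by LC-MS after solid-phase extraction, pretreatment or vehicle given intraperitoneally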
# Excerpt: as §1, §2, §3
compound,measurement,setting,value
"O=c1c(-c2ccc(O)cc2)coc2cc(O)cc(O)c12 [Genistein, genistein]","1a,1b-dihomo-PGF2α",[1],1.9 nM
same,"4,5-DiHDPE",[1],15 nM
same,4-HDHA,[1],28^† nM
same,5(6)-EpETrE,[1],140^† nM
same,"5,6-DiHETrE",[1],1.8^† nM
same,5-HEPE,[1],1.3 nM
same,5-HETE,[1],15^† nM
same,5-oxo-ETE,[1],45 nM
same,6-keto-PGF1α,[1],61 nM
same,"7,8-DiHDPE",[1],2.0^* nM
same,7-HDHA,[1],4.0^* nM
same,8(9)-EpETrE,[1],34^‡ nM
same,"8,9-DiHETrE",[1],1.9 nM
same,8-HDHA,[1],23^‡ nM
same,8-HETE,[1],4.9 nM
same,8-iPF2a,[1],2.0 nM
same,9(10)-EpODE,[1],14 nM
same,9(10)-EpOME,[1],170^* nM
same,9(10)-Epoxystearic acid,[1],75^* nM
same,"9,10,13-TriHOME",[1],4.3 nM
same,"9,10-DiHODE",[1],1.6 nM
same,"9,10-DiHOME",[1],31 nM
same,"9,10-Dihydroxystearic acid",[1],50 nM
same,"9,12,13-TriHOME",[1],24 nM
same,9-HETE,[1],4.3^† nM
same,9-HODE,[1],280 nM
same,9-HOTrE,[1],5.0 nM
same,9-oxo-ODE,[1],65 nM
same,10(11)-EpDPE,[1],71^† nM
same,"10,11-DiHDPE",[1],2.4 nM
same,10-HDHA,[1],4.3 nM
same,11(12)-EpETE,[1],4.0 nM
same,11(12)-EpETrE,[1],82^† nM
same,"11,12-DiHETrE",[1],2.8 nM
same,11-HDHA,[1],7.7^† nM
same,11-HETE,[1],18 nM
same,12(13)-EpODE,[1],8.1^* nM
same,12(13)-EpOME,[1],120^* nM
same,"12,13-DiHOME",[1],78 nM
same,12-HEPE,[1],2.2 nM
same,12-HETE,[1],21 nM
same,13(14)-EpDPE,[1],56^† nM
same,"13,14-DiHDPE",[1],5.0 nM
same,"13,14-dihydro-15-keto-PGF2α",[1],3.1 nM
same,13-HDHA,[1],9.1^* nM
same,13-HODE,[1],230 nM
same,13-HOTrE,[1],6.0 nM
same,13-oxo-ODE,[1],11 nM
same,14(15)-EpETE,[1],4.7^† nM
same,14(15)-EpETrE,[1],57^* nM
same,"14,15-DiHETE",[1],1.1 nM
same,"14,15-DiHETrE",[1],8.5 nM
same,14-HDHA,[1],14 nM
same,15(16)-EpODE,[1],56^† nM
same,15(S)-HETrE,[1],6.4 nM
same,"15,16-DiHODE",[1],26 nM
same,15-HETE,[1],31^* nM
same,15-oxo-ETE,[1],12^* nM
same,16(17)-EpDPE,[1],52^† nM
same,"16,17-DiHDPE",[1],15 nM
same,16-HDHA,[1],9.1 nM
same,17(18)-EpETE,[1],5.7^† nM
same,"17,18-DiHETE",[1],4.4 nM
same,17-HDHA,[1],22 nM
same,18-HEPE,[1],2.0^* nM
same,19(20)-EpDPE,[1],88^† nM
same,"19,20-DiHDPE",[1],100 nM
same,20-HDHA,[1],25^* nM
same,20-HEPE,[1],5.9 nM
same,EKODE,[1],58 nM
same,PGD2,[1],9.6 nM
same,PGE1,[1],6.3 nM
same,PGE2,[1],110 nM
same,PGF1α,[1],3.7 nM
same,PGF2α,[1],40 nM
same,TXB2,[1],3.2^* nM
same,"5,6-DiHETE",[1]; < = below LOQ,< 0.25 nM
same,5-iPF2α,[1]; < = below LOQ,< 1.0 nM
same,8(9)-EpETE,[1]; < = below LOQ,2.8^† nM
same,"12,13-DiHODE",[1]; < = below LOQ,< 2.0 nM
same,"13,14-dihydro-15-keto-PGE1",[1]; < = below LOQ,0.5 nM
same,20-HETE,[1]; < = below LOQ,< 2.7 nM
same,PGD1,[1]; < = below LOQ,< 0.50 nM
same,PGF2α,[1]; second listing of PGF2α (r9),40 nM
same,"1a,1b-dihomo-PGF2α concentration in plasma",[2],0.33 nM
same,"4,5-DiHDPE concentration in plasma",[2],10 nM
same,4-HDHA concentration in plasma,[2],2.0 nM
same,5(6)-EpETrE concentration in plasma,[2],8.9 nM
same,"5,6-DiHETrE concentration in plasma",[2],0.72 nM
same,5-HEPE concentration in plasma,[2],0.33 nM
same,5-HETE concentration in plasma,[2],3.1 nM
same,5-iPF2α concentration in plasma,[2],< 0.50 nM
same,5-oxo-ETE concentration in plasma,[2],1.2 nM
same,6-keto-PGF1α concentration in plasma,[2],2.4 nM
same,"7,8-DiHDPE concentration in plasma",[2],1.1 nM
same,7-HDHA concentration in plasma,[2],0.64 nM
same,8(9)-EpETrE concentration in plasma,[2],2.3 nM
same,"8,9-DiHETrE concentration in plasma",[2],2.1 nM
same,8-HDHA concentration in plasma,[2],4.0 nM
same,8-HEPE concentration in plasma,[2],0.72 nM
same,8-HETE concentration in plasma,[2],9.6 nM
same,8-iPF2a concentration in plasma,[2],0.24 nM
same,9(10)-EpODE concentration in plasma,[2],3.5 nM
same,9(10)-EpOME concentration in plasma,[2],37 nM
same,9(10)-Epoxystearic acid concentration in plasma,[2],31 nM
same,"9,10,13-TriHOME concentration in plasma",[2],1.5 nM
same,"9,10-DiHODE concentration in plasma",[2],4.8 nM
same,"9,10-DiHOME concentration in plasma",[2],63 nM
same,"9,10-Dihydroxystearic acid concentration in plasma",[2],15 nM
same,"9,12,13-TriHOME concentration in plasma",[2],9.6 nM
same,9-HODE concentration in plasma,[2],96 nM
same,9-HOTrE concentration in plasma,[2],4.1 nM
same,9-oxo-ODE concentration in plasma,[2],16 nM
same,10(11)-EpDPE concentration in plasma,[2],3.0 nM
same,"10,11-DiHDPE concentration in plasma",[2],0.90 nM
same,10-HDHA concentration in plasma,[2],16 nM
same,11(12)-EpETrE concentration in plasma,[2],2.7 nM
same,"11,12-DiHETE concentration in plasma",[2],0.19 nM
same,"11,12-DiHETrE concentration in plasma",[2],1.9 nM
same,11-HDHA concentration in plasma,[2],1.2 nM
same,11-HETE concentration in plasma,[2],2.7 nM
same,12(13)-EpODE concentration in plasma,[2],1.8 nM
same,12(13)-EpOME concentration in plasma,[2],34 nM
same,"12,13-DiHODE concentration in plasma",[2],4.7 nM
same,"12,13-DiHOME concentration in plasma",[2],214 nM
same,12-HEPE concentration in plasma,[2],140 nM
same,12-HETE concentration in plasma,[2],1200 nM
same,13(14)-EpDPE concentration in plasma,[2],2.0 nM
same,"13,14-DiHDPE concentration in plasma",[2],0.96 nM
same,"13,14-dihydro-15-keto-PGE1 concentration in plasma",[2],0.18 nM
same,"13,14dihydro-15-keto-PGF2α concentration in plasma",[2],0.43 nM
same,13-HDHA concentration in plasma,[2],2.8 nM
same,13-HODE concentration in plasma,[2],240 nM
same,13-HOTrE concentration in plasma,[2],15 nM
same,13-oxo-ODE concentration in plasma,[2],2.7 nM
same,14(15)-EpETE concentration in plasma,[2],0.21 nM
same,14(15)-EpETrE concentration in plasma,[2],2.0 nM
same,"14,15-DiHETE concentration in plasma",[2],0.41 nM
same,"14,15-DiHETrE concentration in plasma",[2],4.3 nM
same,14-HDHA concentration in plasma,[2],450 nM
same,15(16)-EpODE concentration in plasma,[2],2.0 nM
same,15(S)-HETrE concentration in plasma,[2],2.7 nM
same,"15,16-DiHODE concentration in plasma",[2],40 nM
same,15-HEPE concentration in plasma,[2],0.96 nM
same,15-HETE concentration in plasma,[2],5.1 nM
same,15-oxo-ETE concentration in plasma,[2],0.42 nM
same,16(17)-EpDPE concentration in plasma,[2],2.1 nM
same,"16,17-DiHDPE concentration in plasma",[2],2.2 nM
same,16-HDHA concentration in plasma,[2],1.9 nM
same,17(18)-EpETE concentration in plasma,[2],1.2 nM
same,"17,18-DiHETE concentration in plasma",[2],2.3 nM
same,17-HDHA concentration in plasma,[2],21 nM
same,18-HEPE concentration in plasma,[2],0.45 nM
same,19(20)-EpDPE concentration in plasma,[2],14 nM
same,"19,20-DiHDPE concentration in plasma",[2],19 nM
same,20-HDHA concentration in plasma,[2],3.7 nM
same,20-HEPE concentration in plasma,[2],2.8 nM
same,20-HETE concentration in plasma,[2],1.7 nM
same,EKODE concentration in plasma,[2],9.9 nM
same,PGD2 concentration in plasma,[2],< 0.50 nM
same,PGE2 concentration in plasma,[2],0.95 nM
same,PGF1α concentration in plasma,[2],0.13 nM
same,PGF2α concentration in plasma,[2],0.44 nM
same,TXB2 concentration in plasma,[2],2.6 nM
